Assay results published in ChEMBL document CHEMBL1201861, “Genomics of Drug Sensitity in Cancer screening data, Wellcome Trust Sanger Institute”.
pIC50: −log10 of the molar value.

Key:
Assay in all cases: cells
CAS-1 = format: functional, cell-based, Homo sapiens; details: Homo sapiens, CAS-1;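 further: growth inhibition of CAS-1 cells, measured with a cell viability assay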
Description: SANGER: Inhibition of human CAS-1 cell growth in a cell viability assay.

697 = format: functional, cell-based, Homo sapiens; details: Homo sapiens
Description: SANGER: Inhibition of human 697 cell growth in a cell viability assay.

SW872 = format: functional, cell-based, Homo sapiens; details: Homo sapiens, SW872;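 further: growth inhibition of SW872 cells, read out by a viability assay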
Description: SANGER: Inhibition of human SW872 cell growth in a cell viability assay.

KM12 = format: functional, cell-based, Homo sapiens; details: Homo sapiens, KM12;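 further: KM12 cell growth inhibition, read out with a cell viability assay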
Description: SANGER: Inhibition of human KM12 cell growth in a cell viability assay.

KM-H2 = format: functional, cell-based, Homo sapiens; details: Homo sapiens, KM-H2;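 further: growth inhibition of KM-H2 cells, read out by a cell viability assay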
Description: SANGER: Inhibition of human KM-H2 cell growth in a cell viability assay.

D-502MG = format: functional, cell-based, Homo sapiens; details: Homo sapiens, D-502MG
Description: SANGER: Inhibition of human D-502MG cell growth in a cell viability assay.

KARPAS-299 = format: functional, cell-based, Homo sapiens; details: Homo sapiens, KARPAS-299
Description: SANGER: Inhibition of human KARPAS-299 cell growth in a cell viability assay.

LS-513 = format: functional, cell-based, Homo sapiens; details: Homo sapiens, LS-513
Description: SANGER: Inhibition of human LS-513 cell growth in a cell viability assay.

KGN = format: functional, cell-based, Homo sapiens; details: Homo sapiens, KGN;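 further: growth inhibition of KGN cells, read out with a cell viability assay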
Description: SANGER: Inhibition of human KGN cell growth in a cell viability assay.

KARPAS-45 = format: functional, cell-based, Homo sapiens; details: Homo sapiens, KARPAS-45;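 further: inhibition of cell line growth, read out through a viability assay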
Description: SANGER: Inhibition of human KARPAS-45 cell growth in a cell viability assay.

SK-UT-1 = format: functional, cell-based, Homo sapiens; details: Homo sapiens, SK-UT-1;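 further: growth inhibition of SK-UT-1 cells, measured by a cell viability assay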
Description: SANGER: Inhibition of human SK-UT-1 cell growth in a cell viability assay.

SW982 = format: functional, cell-based; details: Homo sapiens;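 further: growth inhibition of SW982 cells, read out with a cell viability assay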
Description: SANGER: Inhibition of human SW982 cell growth in a cell viability assay.

HCC2157 = format: functional, cell-based, Homo sapiens; details: Homo sapiens, HCC2157;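 further: growth inhibition of the cancer cell line, read out as cell viability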
Description: SANGER: Inhibition of human HCC2157 cell growth in a cell viability assay.

TE-5 = format: functional, cell-based, Homo sapiens; details: Homo sapiens, TE-5;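 further: inhibition of cell growth, read out by a cell viability assay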
Description: SANGER: Inhibition of human TE-5 cell growth in a cell viability assay.

SNU1 = format: functional, cell-based, Homo sapiens; details: Homo sapiens, SNU1;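 further: growth inhibition of human NCI-SNU-1 cells, measured with a cell viability assay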
Description: SANGER: Inhibition of human NCI-SNU-1 cell growth in a cell viability assay.

NEC8 = format: functional, cell-based, Homo sapiens; details: Homo sapiens, NEC8;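 further: growth inhibition of human NEC8 cells, read out by a cell viability assay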
Description: SANGER: Inhibition of human NEC8 cell growth in a cell viability assay.

SF-539 = format: functional, cell-based, Homo sapiens; details: Homo sapiens, SF-539;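 further: Read-out is a cell viability assay, with IC50 reflecting inhibition of cell growth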
Description: SANGER: Inhibition of human SF539 cell growth in a cell viability assay.

CCRF-CEM = format: functional, cell-based, Homo sapiens; details: Homo sapiens, CCRF-CEM;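 further: inhibition of CCRF-CEM cell growth, measured by a cell viability assay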
Description: SANGER: Inhibition of human CCRF-CEM cell growth in a cell viability assay.

MFM-223 = format: functional, cell-based, Homo sapiens; details: Homo sapiens, MFM-223
Description: SANGER: Inhibition of human MFM-223 cell growth in a cell viability assay.

KU812 cell line = format: functional, cell-based, Homo sapiens; details: Homo sapiens, KU812;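 further: growth inhibition of KU812 cells, read out with a cell viability assay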
Description: SANGER: Inhibition of human KU812 cell growth in a cell viability assay.

SK-N-FI = format: functional, cell-based, Homo sapiens; details: Homo sapiens, SK-N-FI;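 further: cell viability assay measuring growth inhibition of human SK-N-FI cells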
Description: SANGER: Inhibition of human SK-N-FI cell growth in a cell viability assay.

SHP77 = format: functional, cell-based, Homo sapiens, SHP-77; details: Homo sapiens, SHP77;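 further: growth inhibition of human SHP-77 cells measured by a cell viability assay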
Description: SANGER: Inhibition of human SHP-77 cell growth in a cell viability assay.

EOL1 = format: functional, cell-based, Homo sapiens; details: Homo sapiens, EOL1;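 further: growth inhibition of EoL-1 cells, read out by a cell viability assay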
Description: SANGER: Inhibition of human EoL-1-cell cell growth in a cell viability assay.

HCE-T = format: functional, cell-based, Homo sapiens; details: Homo sapiens, HCE-T;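 further: cell viability assay read-out, reporting inhibition of HCE-T cell growth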
Description: SANGER: Inhibition of human HCE-T cell growth in a cell viability assay.

ATN-1 = format: functional, cell-based, Homo sapiens; details: Homo sapiens, ATN-1;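 further: growth inhibition of human ATN-1 cells, read out with a cell viability assay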
Description: SANGER: Inhibition of human ATN-1 cell growth in a cell viability assay.

EW-16 = format: functional, cell-based, Homo sapiens; details: Homo sapiens, EW-16;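 further: growth inhibition of human EW-16 cells, read out as cell viability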
Description: SANGER: Inhibition of human EW-16 cell growth in a cell viability assay.

DEL = format: functional, cell-based, Homo sapiens; details: Homo sapiens, DEL;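 further: growth inhibition of the human DEL cell line, read out with a cell viability assay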
Description: SANGER: Inhibition of human DEL cell growth in a cell viability assay.

LB831-BLC = format: functional, cell-based, Homo sapiens; details: Homo sapiens, LB831-BLC;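 further: growth inhibition of LB831-BLC cells, read out with a cell viability assay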
Description: SANGER: Inhibition of human LB831-BLC cell growth in a cell viability assay.

NCI-H2171 = format: functional, cell-based, Homo sapiens; details: Homo sapiens, NCI-H2171;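 further: growth inhibition of human NCI-H2171 cells, read out by a cell viability assay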
Description: SANGER: Inhibition of human NCI-H2171 cell growth in a cell viability assay.

KNS-42 = format: functional, cell-based; details: Homo sapiens;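 further: growth inhibition of KNS-42 cells, read out with a cell viability assay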
Description: SANGER: Inhibition of human KNS-42 cell growth in a cell viability assay.

NCI-H1417 = format: functional, cell-based, Homo sapiens; details: Homo sapiens, NCI-H1417;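 further: human NCI-H1417 cells, growth inhibition determined with a cell viability readout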
Description: SANGER: Inhibition of human NCI-H1417 cell growth in a cell viability assay.

COLO-684 = format: functional, cell-based, Homo sapiens; details: Homo sapiens, COLO-684
Description: SANGER: Inhibition of human COLO-684 cell growth in a cell viability assay.

L-428 = format: functional, cell-based, Homo sapiens; details: Homo sapiens, L-428
Description: SANGER: Inhibition of human L-428 cell growth in a cell viability assay.

SK-MEL-1 = format: functional, cell-based, Homo sapiens; details: Homo sapiens, SK-MEL-1;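 further: growth inhibition of human SK-MEL-1 cells, read out by a cell viability assay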
Description: SANGER: Inhibition of human SK-MEL-1 cell growth in a cell viability assay.

LB996-RCC = format: functional, cell-based, Homo sapiens; details: Homo sapiens, LB996-RCC
Description: SANGER: Inhibition of human LB996-RCC cell growth in a cell viability assay.

RPMI-8866 = format: functional, cell-based, Homo sapiens; details: Homo sapiens, RPMI-8866
Description: SANGER: Inhibition of human RPMI-8866 cell growth in a cell viability assay.

MZ7-mel = format: functional, cell-based, Homo sapiens; details: Homo sapiens, MZ7-mel;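 further: growth inhibition of human MZ7-mel cells, measured by a cell viability assay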
Description: SANGER: Inhibition of human MZ7-mel cell growth in a cell viability assay.

ES8 = format: functional, cell-based, Homo sapiens; details: Homo sapiens, ES8;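 further: growth inhibition of human ES8 cells, read out with a cell viability assay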
Description: SANGER: Inhibition of human ES8 cell growth in a cell viability assay.

Mo = format: functional, cell-based, Homo sapiens; details: Homo sapiens, Mo
Description: SANGER: Inhibition of human Mo-T cell growth in a cell viability assay.

KLE = format: functional, cell-based; details: Homo sapiens;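 further: growth inhibition of human KLE cells, read out with a cell viability assay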
Description: SANGER: Inhibition of human KLE cell growth in a cell viability assay.

COLO-829 = format: functional, cell-based, Homo sapiens; details: Homo sapiens, COLO-829
Description: SANGER: Inhibition of human COLO-829 cell growth in a cell viability assay.

J-RT3-T3-5 = format: functional, cell-based, Homo sapiens; details: Homo sapiens, J-RT3-T3-5;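 further: cell viability assay measuring growth inhibition of human J-RT3-T3-5 cells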
Description: SANGER: Inhibition of human J-RT3-T3-5 cell growth in a cell viability assay.

GB-1 = format: functional, cell-based, Homo sapiens; details: Homo sapiens, GB-1;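 further: growth of GB-1 cells judged by a viability assay, IC50 marks the concentration inhibiting growth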
Description: SANGER: Inhibition of human GB-1 cell growth in a cell viability assay.

HCC2218 = format: functional, cell-based, Homo sapiens; details: Homo sapiens, HCC2218;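 further: cell viability assay read-out, with IC50 given as the concentration that inhibits growth of the cell line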
Description: SANGER: Inhibition of human HCC2218 cell growth in a cell viability assay.

NCI-H1304 = format: functional, cell-based, Homo sapiens; details: Homo sapiens, NCI-H1304;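 further: growth inhibition of the cancer cell line, measured in a cell viability assay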
Description: SANGER: Inhibition of human NCI-H1304 cell growth in a cell viability assay.

SCC-15 = format: functional, cell-based, Homo sapiens; details: Homo sapiens, SCC-15;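 further: growth inhibition of SCC-15 cells, read out with a cell viability assay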
Description: SANGER: Inhibition of human SCC-15 cell growth in a cell viability assay.

LB2241-RCC = format: functional, cell-based, Homo sapiens; details: Homo sapiens, LB2241-RCC;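 further: cell viability assay measuring how strongly the cultured human renal carcinoma line is prevented from growing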
Description: SANGER: Inhibition of human LB2241-RCC cell growth in a cell viability assay.

OVCAR-4 = format: functional, cell-based, Homo sapiens; details: Homo sapiens, OVCAR-4;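 further: growth inhibition of human OVCAR-4 cells, measured with a cell viability assay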
Description: SANGER: Inhibition of human OVCAR-4 cell growth in a cell viability assay.

SNU-C2B = format: functional, cell-based; details: Homo sapiens;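 further: cell viability readout used to measure compound-driven suppression of SNU-C2B cell proliferation, IC50 marking half-maximal growth inhibition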
Description: SANGER: Inhibition of human SNU-C2B cell growth in a cell viability assay.

TGBC1TKB = format: functional, cell-based, Homo sapiens; details: Homo sapiens, TGBC1TKB;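 further: growth inhibition of TGBC1TKB cells, read out by a cell viability assay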
Description: SANGER: Inhibition of human TGBC1TKB cell growth in a cell viability assay.

COc1ccc(N(C(=O)Oc2c(C)cccc2C)c2ccnc(Nc3ccc(N4CCN(C)CC4)cc3)n2)c(OC)c1
pIC50 (CAS-1): 5.36
pIC50 697: 5.47
pIC50 (SW872): 6.06
pIC50 (KM12): < 5.29
pIC50 (KM-H2): < 5.29
pIC50 (D-502MG): < 5.29
pIC50 (KARPAS-299): < 5.29
pIC50 (LS-513): < 5.29
pIC50 (KGN): 5.98
pIC50 (KARPAS-45): < 5.29
pIC50 (SK-UT-1): < 5.29
pIC50 (SW982): 6.07
pIC50 (HCC2157): < 5.29
pIC50 (TE-5): < 5.29
pIC50 (SNU1): < 5.29
pIC50 (NEC8): < 5.29
pIC50 (SF-539): < 5.29
pIC50 (CCRF-CEM): < 5.29
pIC50 (MFM-223): < 5.29
pIC50 (KU812 cell line): < 5.29
pIC50 (SK-N-FI): < 5.29
pIC50 (SHP77): < 5.29
pIC50 (EOL1): > 7.70
pIC50 (HCE-T): < 5.29
pIC50 (ATN-1): < 5.29
pIC50 (EW-16): < 5.29
pIC50 (DEL): < 5.29
pIC50 (LB831-BLC): 6.90
pIC50 (NCI-H2171): < 5.29
pIC50 (KNS-42): < 5.29
pIC50 (NCI-H1417): < 5.29
pIC50 (COLO-684): < 5.29
pIC50 (L-428): < 5.29
pIC50 (SK-MEL-1): < 5.29
pIC50 (LB996-RCC): 7.25
pIC50 (RPMI-8866): < 5.29
pIC50 (MZ7-mel): 5.29
pIC50 (ES8): < 5.29
pIC50 (Mo): < 5.29
pIC50 (KLE): 5.73
pIC50 (COLO-829): 6.51
pIC50 (J-RT3-T3-5): < 5.29
pIC50 (GB-1): 5.94
pIC50 (HCC2218): < 5.29
pIC50 (NCI-H1304): < 5.29
pIC50 (SCC-15): < 5.29
pIC50 (LB2241-RCC): < 5.29
pIC50 (OVCAR-4): < 5.29
pIC50 (SNU-C2B): < 5.29
pIC50 (TGBC1TKB): < 5.29
